Results published in patent EP2891655A1, “Anilides-alkylthioethers as ACAT inhibitors for the treatment de dermatological diseases” (PIERRE FABRE MEDICAMENT, priority 2011, dated 2012).

Legend:
[1] = tested on: glandes sébacées; conditions: primate, chronic treatment; cited from earlier work
[2] = tested on: procollagène de type 1; conditions: protein level and mRNA; cited from earlier work
[3] = tested on: ACAT; test: ACAT activity, rat liver microsomes (method of Chautan et al.); type: biochemical; conditions: radiolabelled precursor, cholesteryl-oléate formed quantified, read-out: microsomes CI50
Description: (§1) Les expérimentations utilisent la méthode de Chautan M. et coll., (Anal. Biochem. 1988) afin de déterminer l'activité ACAT. Les activités sont exprimées en concentrations inhibitrices à 50% (CI50), l'unité est le nM. Deux types de préparations enzymatiques ont été utilisés pour analyser l'activité putative des composés : microsomes hépatiques de rat et cellules humaines intactes HepG2. Les microsomes sont obtenus à partir de fractionnement subcellulaire utilisant une étape d'homogénéisation puis une étape d'ultracentrifugation. Le dosage de l'activité ACAT est réalisé par incubation des microsomes hépatiques ou des cellules avec le composé d'intérêt ainsi que le précurseur radiomarqué. La séparation du produit de la réaction à partir du milieu d'incubation acellulaire ou cellulaire est réalisée par élution sur colonne de silice; le cholesteryl-oléate formé est ensuite quantifié en radioanalyse.

[4] = tested on: ACAT; test: ACAT activity, intact HepG2 cells (method of Chautan et al.); type: cell-based, humaines
Description: as §1

[5] = tested on: ACAT; test: ACAT inhibition in vivo: plasma cholesterol in rats on a hypercholesterolemic diet; conditions: oral route, 4 days of hypercholesterolemic diet with simultaneous treatment, plasma cholesterol on day 5 (colorimetric)
Description: Les rats sont soumis à un régime alimentaire hypercholestérolémique pendant 4 jours. Les animaux sont traités simultanément par voie orale avec les différentes molécules. Le cinquième jour les animaux sont euthanasiés et la variation des taux de cholestérol plasmatique circulant analysée par méthode colorimétrique. Les activités sont exprimées en doses efficaces à 50% (DE50), l'unité est le mg/kg.

[6] = intact human HepG2 cells; radiolabelled precursor, cholesteryl-oléate formed quantified; read-out: HepG2 CI50
[7] = read-out: HepG2 CI50; intact human HepG2 cells; radiolabelled precursor, cholesteryl-oléate formed quantified

Row | Compound | effet secondaire sur les glandes sébacées [1] | procollagène de type 1 [2] | IC50 [3] [nM] | IC50 [4, 6] [nM] | Etude in vivo chez le rat DE50 [5] [mg/kg] | IC50 [4, 7] [nM]
1 | CC(C)c1cccc(C(C)C)c1NC(=O)NCC1(c2ccc(N(C)C)cc2)CCCC1.Cl [PD 132301-2] | atrophie des glandes sébacées | – | – | – | – | –
2 | CCCCCCCCN1CCc2c(C)c(CC(=O)O)c(C)c(NC(=O)C(C)(C)C)c21 [pactimibe] | – | n'ont pas cette propriété | – | – | – | –
3 | CCCCCCCCCCCCSC(C(=O)Nc1cc(C)c(O)c(C)c1C)c1ccsc1 (stereo not shown) [Exemple 6, 2-(dodécylthio)-N-(4-hydroxy-2,3,5-triméthylphényl)-2-(thiophén-3-yl)acétamide] | – | – | 71 | 27 | 0.17 | –
4 | CCCCCCCCCCCCSC(C(=O)Nc1c(C)c(C)c(N)c(C)c1C)c1cccs1 (stereo not shown) [Exemple 8, chlorhydrate du N-(4-amino-2,3,5,6-tétraméthylphényl)-2-(dodécylthio)-2-(thiophén-2-yl)acétamide] | – | – | 69 | – | 0.26 | 38
5 | CCCCCCCCCCCCSC(C)(C)C(=O)N1CCCCC1C(=O)Nc1cc(C)c(O)c(C)c1C (stereo not shown) [Exemple 1, 1-(2-(dodécylthio)-2-méthylpropanoyl)-N-(4-hydroxy-2,3,5-triméthyl-phényl)pipéridine-2-carboxamide] | – | – | 47 | 47 | 0.63 | –
6 | CSc1cc(C)nc(SC)c1NC(=O)CN1CCN(CCSc2nc3ccccc3[nH]2)CC1 [K-604] | – | augmentation de procollagène de type 1 | – | – | – | –
7 | CCCCCCCCCCCCSC(C)(C)C(=O)N1CSC[C@H]1C(=O)Nc1cc(C)c(O)c(C)c1C [Exemple 5, (R)-3-(2-(dodécylthio)-2-méthylpropanoyl)-N-(4-hydroxy-2,3,5-triméthyl-phényl)thiazolidine-4-carboxamide] | – | – | 34 | 39 | <0.63 | –
8 | CCCCCCCCCCSC(C)(C)C(=O)N1CCC[C@H]1C(=O)Nc1cc(C)c(O)c(C)c1C [Exemple 4, (S)-1-(2-(décylthio)-2-méthylpropanoyl)-N-(4-hydroxy-2,3,5-triméthyl-phényl)-pyrrolidine-2-carboxamide] | – | – | – | – | 0.63 | –
9 | CCCCCCCCCCCCSC(C)(C)C(=O)N1CCC[C@H]1C(=O)Nc1cc(C)c(O)c(C)c1C [Exemple 3, (S)-1-(2-(dodécylthio)-2-méthylpropanoyl)-N-(4-hydroxy-2,3,5-triméthyl-phényl)pyrrolidine-2-carboxamide] | – | – | 18 | 34 | <0.63 | –
10 | CCCCCCCCCCCCSC(C)(C)C(=O)N1CCCC1C(=O)Nc1cc(C)c(O)c(C)c1C (stereo not shown) [Exemple 2, 1-(2-(dodécylthio)-2-méthylpropanoyl)-N-(4-hydroxy-2,3,5-triméthyl-phényl)-pyrrolidine-2-carboxamide] | – | – | 81 | 48 | <0.63 | –
11 | CCCCCCCCCCCCSC(C(=O)Nc1c(C)c(C)c(N)c(C)c1C)c1ccsc1 (stereo not shown) [Exemple 7, chlorhydrate du N-(4-amino-2,3,5,6-tétraméthylphényl)-2-(dodécylthio)-2-(thiophén-3-yl)acétamide] | – | – | 41 | – | 0.16 | 93
